Experimental data: article PMC8155809 (The Journal of General Physiology, 2021)

Molecular target: T1, Human TREK-2 (KCNK10) crystal construct (Homo sapiens, UniProt P57789)
T1 construct: “crystal construct” protein (Gly67 to Glu340); made in house
T1 sequence (P57789 67-340 isoform P57789-4): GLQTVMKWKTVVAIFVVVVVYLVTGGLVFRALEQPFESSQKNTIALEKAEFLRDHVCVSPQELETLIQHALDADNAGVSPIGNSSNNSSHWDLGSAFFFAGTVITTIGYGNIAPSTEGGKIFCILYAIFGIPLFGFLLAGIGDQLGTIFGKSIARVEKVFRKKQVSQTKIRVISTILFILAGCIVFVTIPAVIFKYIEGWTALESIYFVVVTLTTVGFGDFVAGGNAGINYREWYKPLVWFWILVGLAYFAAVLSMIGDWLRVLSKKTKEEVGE
Experiment: Single-channel recordings of purified TREK-2 reconstituted in lipid bilayers
Type: biochemical
Settings: for Po (single-channel open probability) / block of channel (Po): 10 µM NFx; for Po (single-channel open probability): +60 mV; for AC1, area of closed state 1 / AC2, area of closed state 2 / AC3, area of closed state 3 / AC4, area of closed state 4 / AC5, area of closed state 5 / τC1, mean lifetime of closed state 1 / τC2, mean lifetime of closed state 2 / τC3, mean lifetime of closed state 3 / τC4, mean lifetime of closed state 4 / τC5, mean lifetime of closed state 5 / τO, mean open time: 100 μM NFx
Description: Human TREK-2 (KCNK10) “crystal construct” protein (Gly67 to Glu340) was expressed and purified as previously described ([Dong et al., 2015]), with the exception that it was purified in 1% wt/vol n-octyl-β-D-glucoside, 0.1% wt/vol cholesteryl hemisuccinate. 1,2-Diphytanoyl-sn-glycero-3-phosphocholine was dissolved in chloroform to a concentration of 10 mM and stored at −20°C. The GUVs were then made by electroformation in a 1 M sorbitol solution using Vesicle Prep Pro (Nanion Technologies). Purified TREK-2 was then mixed with GUVs to a final concentration of ∼1–5 µg/ml and incubated overnight at 4°C with 0.5 mg/ml Bio-Beads (Bio-Rad) before use.
All electrophysiological recordings were performed with the Nanion Port-a-Patch system connected to an Axopatch 200B amplifier via a Digidata 1440A digitizer (Molecular Devices). Data were filtered at 5 kHz and recorded at a 200-kHz sampling rate with program Clampex (Molecular Devices). Experiments were performed in symmetrical 200 mM KCl and 10 mM HEPES (pH 6.0 with KOH) solutions. Single-channel currents were idealized using 50% threshold criterion with program Clampfit (Molecular Devices) at an imposed resolution of 50 µs. Only one open and one closed level were considered in the analysis; all subconductance states were neglected (these typically comprised less than 1% of open- and closed-level events of channels in the “high PO” mode). Analysis of amplitude and dwell-time distributions was performed in Origin (OriginLab Corporation) and an in-house software written in Mathematica (Wolfram Technologies). Empirical correction for open times due to missed events was performed as described previously ([Davies et al., 1992]). Critical time for burst analysis was determined using Colquhoun and Sakmann criterion ([Colquhoun and Sakmann, 1985]).

Structure (SMILES): NCCC(Oc1ccc(C(F)(F)F)cc1)c1ccccc1 (stereo not drawn) [NFx, norfluoxetine]
- Po (single-channel open probability) (channel with high Po (Fig. S5B)): 0.70
- Po (single-channel open probability) (channel with low Po (Fig. S5A)): 0.048
- block of channel (Po) (high-Po mode): 20 ± 0.02%
- block of channel (Po) (standard mode): 23 ± 0.05%
- AC1, area of closed state 1 (V 20 mV, high-Po mode): 74%
- AC2, area of closed state 2 (V 20 mV, high-Po mode): 15.5%
- AC3, area of closed state 3 (V 20 mV, high-Po mode): 4.4%
- AC4, area of closed state 4 (V 20 mV, high-Po mode): 4.9%
- AC5, area of closed state 5 (V 20 mV, high-Po mode): 1.5%
- τC1, mean lifetime of closed state 1 (V 20 mV, high-Po mode): 0.041 ms
- τC2, mean lifetime of closed state 2 (V 20 mV, high-Po mode): 0.30 ms
- τC3, mean lifetime of closed state 3 (V 20 mV, high-Po mode): 1.3 ms
- τC4, mean lifetime of closed state 4 (V 20 mV, high-Po mode): 23 ms
- τC5, mean lifetime of closed state 5 (V 20 mV, high-Po mode): 90 ms
- τO, mean open time (V 20 mV, high-Po mode): 0.53 ms
- AC1, area of closed state 1 (V 40 mV, high-Po mode): 75%
- AC2, area of closed state 2 (V 40 mV, high-Po mode): 13.7%
- AC3, area of closed state 3 (V 40 mV, high-Po mode): 3.3%
- AC4, area of closed state 4 (V 40 mV, high-Po mode): 6.2%
- AC5, area of closed state 5 (V 40 mV, high-Po mode): 2.0%
- τC1, mean lifetime of closed state 1 (V 40 mV, high-Po mode): 0.083 ms
- τC2, mean lifetime of closed state 2 (V 40 mV, high-Po mode): 0.36 ms
- τC3, mean lifetime of closed state 3 (V 40 mV, high-Po mode): 4.8 ms
- τC4, mean lifetime of closed state 4 (V 40 mV, high-Po mode): 39 ms
- τC5, mean lifetime of closed state 5 (V 40 mV, high-Po mode): 160 ms
- τO, mean open time (V 40 mV, high-Po mode): 0.69 ms
- AC1, area of closed state 1 (V 60 mV, high-Po mode): 75%
- AC2, area of closed state 2 (V 60 mV, high-Po mode): 13.9%
- AC3, area of closed state 3 (V 60 mV, high-Po mode): 3.5%
- AC4, area of closed state 4 (V 60 mV, high-Po mode): 5.7%
- AC5, area of closed state 5 (V 60 mV, high-Po mode): 1.6%
- τC1, mean lifetime of closed state 1 (V 60 mV, high-Po mode): 0.059 ms
- τC2, mean lifetime of closed state 2 (V 60 mV, high-Po mode): 0.31 ms
- τC3, mean lifetime of closed state 3 (V 60 mV, high-Po mode): 2.1 ms
- τC4, mean lifetime of closed state 4 (V 60 mV, high-Po mode): 41 ms
- τC5, mean lifetime of closed state 5 (V 60 mV, high-Po mode): 160 ms
- τO, mean open time (V 60 mV, high-Po mode): 0.60 ms
- AC1, area of closed state 1 (V 80 mV, high-Po mode): 76%
- AC2, area of closed state 2 (V 80 mV, high-Po mode): 11.9%
- AC3, area of closed state 3 (V 80 mV, high-Po mode): 1.9%
- AC4, area of closed state 4 (V 80 mV, high-Po mode): 7.7%
- AC5, area of closed state 5 (V 80 mV, high-Po mode): 2.6%
- τC1, mean lifetime of closed state 1 (V 80 mV, high-Po mode): 0.055 ms
- τC2, mean lifetime of closed state 2 (V 80 mV, high-Po mode): 0.32 ms
- τC3, mean lifetime of closed state 3 (V 80 mV, high-Po mode): 2.9 ms
- τC4, mean lifetime of closed state 4 (V 80 mV, high-Po mode): 78 ms
- τC5, mean lifetime of closed state 5 (V 80 mV, high-Po mode): 490 ms
- τO, mean open time (V 80 mV, high-Po mode): 0.49 ms
- AC1, area of closed state 1 (V 100 mV, high-Po mode): 77%
- AC2, area of closed state 2 (V 100 mV, high-Po mode): 9.2%
- AC3, area of closed state 3 (V 100 mV, high-Po mode): 2.5%
- AC4, area of closed state 4 (V 100 mV, high-Po mode): 7.5%
- AC5, area of closed state 5 (V 100 mV, high-Po mode): 4.1%
- τC1, mean lifetime of closed state 1 (V 100 mV, high-Po mode): 0.064 ms
- τC2, mean lifetime of closed state 2 (V 100 mV, high-Po mode): 0.30 ms
- τC3, mean lifetime of closed state 3 (V 100 mV, high-Po mode): 1.9 ms
- τC4, mean lifetime of closed state 4 (V 100 mV, high-Po mode): 72 ms
- τC5, mean lifetime of closed state 5 (V 100 mV, high-Po mode): 220 ms
- τO, mean open time (V 100 mV, high-Po mode): 0.44 ms
- AC1, area of closed state 1 (V −20 mV, high-Po mode): 81%
- AC2, area of closed state 2 (V −20 mV, high-Po mode): 10.7%
- AC3, area of closed state 3 (V −20 mV, high-Po mode): 2.5%
- AC4, area of closed state 4 (V −20 mV, high-Po mode): 5.0%
- AC5, area of closed state 5 (V −20 mV, high-Po mode): 0.6%
- τC1, mean lifetime of closed state 1 (V −20 mV, high-Po mode): 0.061 ms
- τC2, mean lifetime of closed state 2 (V −20 mV, high-Po mode): 0.35 ms
- τC3, mean lifetime of closed state 3 (V −20 mV, high-Po mode): 2.5 ms
- τC4, mean lifetime of closed state 4 (V −20 mV, high-Po mode): 45 ms
- τC5, mean lifetime of closed state 5 (V −20 mV, high-Po mode): 260 ms
- τO, mean open time (V −20 mV, high-Po mode): 0.54 ms
- AC1, area of closed state 1 (V −40 mV, high-Po mode): 85%
- AC2, area of closed state 2 (V −40 mV, high-Po mode): 9.3%
- AC3, area of closed state 3 (V −40 mV, high-Po mode): 1.7%
- AC4, area of closed state 4 (V −40 mV, high-Po mode): 4.2%
- AC5, area of closed state 5 (V −40 mV, high-Po mode): 0.2%
- τC1, mean lifetime of closed state 1 (V −40 mV, high-Po mode): 0.069 ms
- τC2, mean lifetime of closed state 2 (V −40 mV, high-Po mode): 0.35 ms
- τC3, mean lifetime of closed state 3 (V −40 mV, high-Po mode): 2.5 ms
- τC4, mean lifetime of closed state 4 (V −40 mV, high-Po mode): 52 ms
- τC5, mean lifetime of closed state 5 (V −40 mV, high-Po mode): 520 ms
- τO, mean open time (V −40 mV, high-Po mode): 0.51 ms
- AC1, area of closed state 1 (V −60 mV, high-Po mode): 85%
- AC2, area of closed state 2 (V −60 mV, high-Po mode): 9.5%
- AC3, area of closed state 3 (V −60 mV, high-Po mode): 1.2%
- AC4, area of closed state 4 (V −60 mV, high-Po mode): 3.4%
- AC5, area of closed state 5 (V −60 mV, high-Po mode): 0.6%
- τC1, mean lifetime of closed state 1 (V −60 mV, high-Po mode): 0.082 ms
- τC2, mean lifetime of closed state 2 (V −60 mV, high-Po mode): 0.30 ms
- τC3, mean lifetime of closed state 3 (V −60 mV, high-Po mode): 1.6 ms
- τC4, mean lifetime of closed state 4 (V −60 mV, high-Po mode): 44 ms
- τC5, mean lifetime of closed state 5 (V −60 mV, high-Po mode): 230 ms
- τO, mean open time (V −60 mV, high-Po mode): 0.35 ms
- AC1, area of closed state 1 (V −80 mV, high-Po mode): 89%
- AC2, area of closed state 2 (V −80 mV, high-Po mode): 6.0%
- AC3, area of closed state 3 (V −80 mV, high-Po mode): 1.0%
- AC4, area of closed state 4 (V −80 mV, high-Po mode): 2.8%
- AC5, area of closed state 5 (V −80 mV, high-Po mode): 0.8%
- τC1, mean lifetime of closed state 1 (V −80 mV, high-Po mode): 0.110 ms
- τC2, mean lifetime of closed state 2 (V −80 mV, high-Po mode): 0.37 ms
- τC3, mean lifetime of closed state 3 (V −80 mV, high-Po mode): 9.5 ms
- τC4, mean lifetime of closed state 4 (V −80 mV, high-Po mode): 58 ms
- τC5, mean lifetime of closed state 5 (V −80 mV, high-Po mode): 140 ms
- τO, mean open time (V −80 mV, high-Po mode): 0.27 ms
- AC1, area of closed state 1 (V −100 mV, high-Po mode): 88%
- AC2, area of closed state 2 (V −100 mV, high-Po mode): 8.0%
- AC3, area of closed state 3 (V −100 mV, high-Po mode): 0.6%
- AC4, area of closed state 4 (V −100 mV, high-Po mode): 2.2%
- AC5, area of closed state 5 (V −100 mV, high-Po mode): 1.0%
- τC1, mean lifetime of closed state 1 (V −100 mV, high-Po mode): 0.110 ms
- τC2, mean lifetime of closed state 2 (V −100 mV, high-Po mode): 0.37 ms
- τC3, mean lifetime of closed state 3 (V −100 mV, high-Po mode): 3.0 ms
- τC4, mean lifetime of closed state 4 (V −100 mV, high-Po mode): 40 ms
- τC5, mean lifetime of closed state 5 (V −100 mV, high-Po mode): 140 ms
- τO, mean open time (V −100 mV, high-Po mode): 0.20 ms
